Patent publication US20140275969A1, “FUNCTIONAL BROWN ADIPOSE TISSUE IMAGING TECHNIQUE” (GENERAL ELECTRIC COMPANY, priority 2013, published 2014)
“Also recorded” adds a separate entry of the source. Marks after values point to notes of the source that are not given here.

Columns and labels:
[1] = tested on: brown adipose tissue (BAT-associated dorsal interscapular region); experiment: Hyperpolarized 13C MR imaging of brown adipose tissue activation after norepinephrine stimulation; type: in vivo, male Sprague-Dawley rats
Description: (§1) The following experimental results are from studies using male Sprague-Dawley rats (n=5, weight=336 g, SD=66 g) that were assessed for brown adipose tissue activation and assessment according to certain embodiments of the disclosure. The animals were kept at an ambient room temperature of 22° C. Ketamine/xylazine was used for anesthesia, with periodic intramuscular re-administration to maintain anesthesia (80-100 mg/kg ketamine, 8-10 mg/kg xylazine). Blood oxygen saturation and heart rate were monitored using a peripheral pulse oximeter placed on the tail. The body temperature of the animal was maintained throughout the imaging procedures using a heated water pad.
(§2) The animals were scanned in the supine position using a 3T GE MR750 scanner (GE Healthcare, Waukesha, Wis.). A micro-strip dual-tuned ^1H/^13C rat coil (Magvale, San Francisco, Calif.) was used. The rat was positioned so that the heart was in the centre of the coil, taking care to position the dorsal interscapular fat pad to remain within the sensitive region of the coil. A T2-weighted fast spin echo (FSE) (TE, 87 ms; TR, 5 s; matrix size, 192×160; FOV, 12×12 cm^2; slice thickness, 3 mm) sequence was used to obtain an anatomical reference for co-registration. A 2D FSE IDEAL sequence (TR, 5 s; matrix size, 192×160; FOV, 12×12 cm^2, slice thickness, 3 mm) was used to obtain water and fat images.
(§3) Hyperpolarized ^13C MR imaging scans were performed following intravenous tail vein infusions of 2.0 mL/80 mM pre-polarized [1-^13C] pyruvate. Pyruvate was injected over 10 seconds, with the MR imaging acquisition started simultaneously with the start of injection. Hyperpolarized scans were performed during baseline (n=5) and stimulated (n=3) conditions, 15 minutes after 2.5 mg/kg intraperitoneal norepinephrine (NE) injection, separated by approximately 1 hour to prepare the hyperpolarized sample. Pyruvate, bicarbonate, and lactate were imaged in an axial orientation using a multi-slice, single-shot, time-resolved 13C spiral imaging pulse sequence previously developed for large animal cardiac imaging (TR, 5 s; FOV, 48×48 cm^2; in-plane resolution, 6.8×6 8 mm^2; 6 slices, slice thickness/spacing, 10 mm/1 mm; pyruvate FA 10°, bicarbonate and lactate FA 60°; scan time, 1 min) (18, 24, 25). Each metabolic volume was acquired once during each TR, giving a total of 12 frames.
(§4) ROIs were drawn using the T2-weighted anatomical images, over the heart, kidneys, and in the dorsal interscapular region, a known depot of BAT in rodents. The ^13C image intensity in these ROIs were normalized to the temporal maximum pyruvate signal in the heart, and corrected for nominal FA by dividing by sin(FA). Statistical significance between baseline and norepinephrine stimulated conditions were assessed using a two-tailed, unpaired Student's t-test. Statistical significance was considered at the P<0.05 level.
To separate the effect from the effect of a change in perfusion, the dynamic data was fit on a voxel-by-voxel basis to obtain the apparent rate constants for pyruvate-to-bicarbonate conversion (kpyr,bic, s^−1) and pyruvate-to-lactate exchange (kpyr,lac, s^−1).

heart = experiment: Hyperpolarized 13C MR imaging after norepinephrine stimulation, heart ROI; type: in vivo, male Sprague-Dawley rats
Description: as §1, §2, §3, §4

kidneys = experiment: Hyperpolarized 13C MR imaging after norepinephrine stimulation, kidney ROI; type: in vivo, male Sprague-Dawley rats
Description: as §1, §2, §3, §4

[2] = human full blood at 37 degrees C.; cited from earlier work
[3] = BAT-associated dorsal interscapular region, voxel-by-voxel fit of dynamic data

Row | SMILES | 13C bicarbonate signal change following norepinephrine stimulation, relative to substrate signal in the heart ([1]; BAT-associated dorsal interscapular region, in words) | Difference in apparent pyruvate-to-bicarbonate conversion rate (kpyr,bic) versus baseline [1, 3] [fold] | Difference in apparent pyruvate-to-lactate conversion rate (kpyr,lac) versus baseline [1, 3] [fold] | Increase in hyperpolarized [1-13C] lactate (lactate-to-pyruvate ratio) versus baseline ([1]; BAT-associated interscapular region, P<0.001) [fold] | Increase in hyperpolarized 13C bicarbonate (bicarbonate-to-pyruvate ratio) versus baseline ([1]; BAT-associated interscapular region, P<0.01) [fold] | Hyperpolarized [1-13C] lactate signal change following norepinephrine infusion ([1]; dorsal interscapular region, in words) | Maximum bicarbonate to maximum cardiac pyruvate signal ratio ([1]; interscapular region, 15 minutes after 2.5 mg/kg intraperitoneal norepinephrine, n = 2, mean±SD) | Maximum lactate to maximum cardiac pyruvate signal ratio ([1]; interscapular region, 15 minutes after 2.5 mg/kg intraperitoneal norepinephrine, n = 3, mean±SD) | Maximum bicarbonate to maximum cardiac pyruvate signal ratio (heart; 15 minutes after 2.5 mg/kg intraperitoneal norepinephrine, n = 2, mean±SD) | Maximum lactate to maximum cardiac pyruvate signal ratio (heart; 15 minutes after 2.5 mg/kg intraperitoneal norepinephrine, n = 3, mean±SD) | Increase in hyperpolarized lactate signal versus baseline (heart; P<0.001) [fold] | Hyperpolarized [1-13C] lactate signal change following norepinephrine infusion (heart; in words) | 13C bicarbonate signal change following norepinephrine stimulation, relative to substrate signal in the heart (heart; in words, listed as NE) | 13C bicarbonate signal change following norepinephrine stimulation, relative to substrate signal in the heart (heart; in words, listed as norepinephrine) | Maximum bicarbonate to maximum cardiac pyruvate signal ratio (kidneys; kidney, 15 minutes after 2.5 mg/kg intraperitoneal norepinephrine, n = 2, mean±SD) | Maximum lactate to maximum cardiac pyruvate signal ratio (kidneys; kidney, 15 minutes after 2.5 mg/kg intraperitoneal norepinephrine, n = 3, mean±SD) | 13C bicarbonate signal change following norepinephrine stimulation, relative to substrate signal in the heart (kidneys; kidney, in words) | Increase in hyperpolarized lactate signal versus baseline (kidneys; kidneys, P<0.05) [fold] | Hyperpolarized [1-13C] lactate signal change following norepinephrine infusion (kidneys; kidneys, in words) | T1 relaxation [2]
1 | NC[C@H](O)c1ccc(O)c(O)c1 [Norepinephrine, norepinephrine] | increased | 3.4 | 4.0 | 4.0 | 4.3 | Increases | 0.0047 ± 0.0010*^ | 0.0543 ± 0.0051 | 0.0099 ± 0.0032^ns | 0.0816 ± 0.0191 | 4.0 | Increases | remained constant | remained constant; also recorded: not statistically significant | 0.0036 ± 0.0028^ns | 0.0625 ± 0.0130 | decreased | 1.9 | Increases | 
2 | CC(=O)[13C](=O)O [^13C1-pyruvate, [1-^13C] pyruvate] |  |  |  |  |  |  |  |  |  |  |  |  |  |  |  |  |  |  |  | about 42 s
